Laboratory results: US9043995B2, “Transgenic fish and uses thereof” (CITY UNIVERSITY OF HONG KONG, priority 2010, dated 2015)
Entries after “also recorded” stand apart in the source; their conditions may differ.

Assays:
[1] = system: transgenic medaka fish larvae (omChgH promoter-EGFP); assay: Binary exposure with E2: change of the liver GFP signal induced by 17β-estradiol in transgenic medaka larvae (agonism / anti-estrogen activity); type: in vivo, Oryzias melastigma; conditions: for effect on estrogenic activity / liver GFP signal induced by 17β-estradiol: binary exposure with E2
Method: Another method of the present invention relates to a method of screening for a compound having anti-estrogenic activity.
(§1) In response to different concentrations of estrogen or estrogen-like chemical substances, transgenic fish expresses varying quantity of EGFP protein which is presented as varying GFP signal intensity under fluorescence microscope. […] To quantify the estrogen-like activity of test solution, fluorescent image of fish liver is recorded using a camera connected with the fluorescence microscope. Liver GFP signal intensity can then be measured using some image analysis software such as Metamorph (Universal Imaging). To reduce the interference of fish autofluorescence, only fish liver area was selected for the analysis. The average signal intensity of the manually marked area calculated using the same software was regarded as GFP signal intensity. Fish liver photos recorded using the same image parameter setting can be compared directly using GFP signal intensity, those photos recorded using varying image parameter settings can also be compared as long as each group contain a common reference control.
6-acetyl-1,1,2,4,4,7-hexamethyltetraline (AHTN) is one of the most widely used polycyclic musk. This compound is used as a fragrance ingredient in cosmetics and household cleaning products. According to HERA Risk Assessment reports in 2004, AHTN is produced in an annual volume of 1000 to 5000 tons in one Netherland and UK plant, respectively. According to HERA Risk Assessments, AHTN is not toxic to humans basing on present daily consumption. However, the ubiquitous distribution, high accumulation in environment (A Peck et al. Environ Sci Technol. 40: 5629-5635 (2006)), and bioaccumulation in organisms including human beings (H Nakata et al. Environ Sci Technol. 41: 2216-2222 (2007); S Lignell et al. Environ Sci Technol. 42: 6743-6748 (2008)) raise the concern of scientists. AHTN is found to be estrogen antagonist (RHMM Schreurs et al. Environ Sci Technol. 38: 997-1002 (2004); RHMM Schreurs et al. Toxicol Sci. 83: 264-272 (2005)). The estrogen antagonist activity of AHTN can also be very easily evaluated using transgenic medaka fish of present invention. Just expose transgenic medaka fish larvae to E2 (e.g. 0.04 μM) or E2 incombination with AHTN (e.g. 5 μM) for a period of time (e.g. 24 hours), and then measure the GFP signal intensity induced by E2 with/without the presence of AHTN.

[2] = system: transgenic brackish medaka larvae (omChgH promoter-EGFP); assay: Estrogen-like activity: induced liver GFP signal in omChgH promoter-EGFP transgenic brackish medaka fish exposed to test solution; type: in vivo, Oryzias melastigma; conditions: for induction of GFP expression in the liver, compound alone: transgenic O. melastigma fish/larvae; for induction of liver GFP expression: transgenic brackish medaka larvae, at nM level; for GFP signal in the liver: phytoestrogens separately, high concentrations, 48 hours
Method: A generalized exposure regimen is established in the present art. FIG. 4 presents an example of using transgenic fish larvae to analyze the estrogen-like activity of a test solution. Exposure of transgenic brackish medaka fish (preferably yolk-sac larvae fish) to test solution (containing estrogen or estrogenic substances) is performed at 28° C. The exposure usually takes 24-48 hours. After exposure, the fish will be deposited on the inner side of a petri-dish cover with a small drop of test solution left. The induced EGFP expression in the fish liver will be observed under fluorescence microscope. Yolk-sac larvae are small, exposure can be carried out in utensils like 96-well plate, 24-well plate, petri-dish and so on to save test reagents. Additionally, newly hatched larvae are the most transparent stage, and the transparence can keep up to 15 days after hatch. After 15 days, the larvae will be gradually less transparent due to the development of muscle. The transgenic fish larvae of 1 to 15 days after hatch have similar estrogen sensitivity (FIG. 5).
as §1
Estrone (E1), 17β-estradiol (E2) and estriol (E3) are natural steroid estrogens. […] Of them, E2 has been intensively studied, and is commonly used as a standard estrogen to evaluate the estrogen-like activity of testing reagents. Using transgenic larvae of present invention, induced GFP signal by E2 can usually be observed within 24 hours, and the GFP signal increases with the increasing concentration of E2. At higher E2 concentrations (e.g., 102 or 1020 nM), induced GFP signal intensity can even be observed within 4 hours after onset of exposure, and the signal increases with exposure time (FIG. 8), and reaches saturation within 24 hours. At low E2 concentrations, however, it will take longer for the induced GFP signal to accumulate to become detectable. Thus, by exposing transgenic brackish medaka fish larvae to different concentrations of E2 for a period of time (such as 24 hours), imaging the GFP expressing liver, and then measuring the induced liver GFP signal intensity using image analysis software, a standard curve correlating GFP signal intensity and E2 concentration can be established (GFP-E2 standard curve; FIG. 9). Using the same regimen, and also include one known E2 concentration exposure as reference, the estrogen-like activity of test reagents can then be evaluated as estrogen potency equivalent by referring the induced liver GFP signal to that of GFP-E2 standard curve.

SMILES	effect on estrogenic activity / liver GFP signal induced by 17β-estradiol [1]	induction of GFP expression in the liver, compound alone [2]	GFP signal in the liver [2]	also measured
CC(=O)c1cc2c(cc1C)C(C)(C)C(C)CC2(C)C (stereo not drawn) [AHTN, 6-acetyl-1,1,2,4,4,7-hexamethyltetraline]	decreased	–	–	GFP signal induced by E2 in the presence of AHTN ([1]; E2 0.04 μM, AHTN 5 μM, 24 hours): weaker GFP signal
COc1ccc(C(=O)CC(=O)c2ccc(C(C)(C)C)cc2)cc1 [BMDM, 4-tert-Butyl-4′-methoxydibenzoylmethane]	estrogen agonism	cannot induce the GFP expression	–	–
CC(C)(c1ccc(O)cc1)c1ccc(O)cc1 [BPA, bisphenol A]	–	can also induce GFP expression	–	–
C[C@]12CC[C@@H]3c4ccc(O)cc4CC[C@H]3[C@@H]1CC[C@@H]2O [E2, 17β-estradiol, reference compound]	–	–	–	time until induced GFP signal can be observed, higher E2 concentrations ([2]; 102 or 1020 nM, after onset of exposure): ≤ 4 h; induced expression of transgene GFP in the liver ([2]; embryo, larva and male fish): can also be induced; time until GFP signal reaches saturation ([2]; higher E2 concentrations (102 or 1020 nM)): ≤ 24 h; induction of liver GFP expression [2]: can induce liver GFP expression; time until induced GFP signal can be observed ([2]; transgenic larvae, E2 exposure): ≤ 24 h
C[C@]12CC[C@@H]3c4ccc(O)cc4CC[C@H]3[C@@H]1C[C@@H](O)[C@@H]2O [E3, estriol, reference compound]	–	–	–	induction of liver GFP expression [2]: can induce liver GFP expression
CC1CC(OC(=O)c2ccccc2O)CC(C)(C)C1 (stereo not drawn) [HMS, homosalate]	can enhance the estrogenic activity of 17β-estradiol in a dose-dependent manner; also recorded: increased	cannot induce the GFP expression	–	–
CCCCCCCCCc1ccc(O)cc1 [NP, 4-nonyphenol]	–	can also induce GFP expression	–	–
CCCCC(CC)COC(=O)c1ccc(N(C)C)cc1 (stereo not drawn) [OD-PABA, octyl dimethyl PABA]	estrogen agonism	cannot induce the GFP expression	–	–
O=c1c(-c2ccc(O)cc2)coc2cc(O)ccc12 [daidzein]	–	–	weak GFP signal	–
O=c1c(-c2ccc(O)cc2)coc2cc(O[C@@H]3O[C@H](CO)[C@@H](O)[C@H](O)[C@H]3O)ccc12 [daidzin]	–	–	weak GFP signal	–
C#C[C@]1(O)CC[C@H]2[C@@H]3CCc4cc(OC)ccc4[C@H]3CC[C@@]21C [ethinylestradiol 3-methyl ether, reference compound]	–	–	–	induced liver GFP signal compared with E2 ([2]; same concentration (nM), same period (24 hours)): stronger than that induced by E2
O=c1c(-c2ccc(O)cc2)coc2cc(O)cc(O)c12 [genistein]	–	–	weak GFP signal	–
O=c1c(-c2ccc(O)cc2)coc2cc(O[C@@H]3O[C@H](CO)[C@@H](O)[C@H](O)[C@H]3O)cc(O)c12 [genistin]	–	–	weak GFP signal	–
